According to patent US20240245639A1, “Dermal Application of Retinoic Acid Receptor Agonists for Amelioration of Hypertrophic Scar” (Northwestern University, priority 2023, published 2024):
Read-outs that look alike come from different tables or passages of the source.

Key:
Format in all cases: cell-based
[1] = tested on: primary human foreskin fibroblasts; assay: Antagonism of fibroblast activation in presence or absence of TGF-β1 (qRT-PCR, Western blot, immunofluorescence); details: 10,000 nM ATRA, ± 10 ng/mL TGF-β1, 48 hours
Procedure: RAR Agonist all-Trans Retinoic Acid Antagonizes Myofibroblast Activation We then wished to see whether another RAR agonist could antagonize myofibroblast activation.
(§1) Cells cultured on glass coverslips were fixed in 4% paraformaldehyde for 30 minutes at room temperature. Cells were blocked in 10% normal goat serum and incubated overnight at 4° C. in solutions of the following primary antibodies: Rabbit monoclonal α-human α-SMA (1:500 dilution, catalog #192455, Cell Signaling Technology, Danvers M A) or mouse α-human COL1A1 (1:1000 dilution, catalog #M-38c, DSHB, Iowa City, IA). The following day, cells were incubated in 1:200 diluted solutions of goat-α-rabbit IgG or donkey-α-mouse IgG Alexafluor 488-conjugated secondary antibodies (A11034 or A21202, Invitrogen) containing Alexafluor 568-conjugated phalloidin (A12380, Invitrogen) for 2 hours in the dark at room temperature, before a 20 minute counterstain in 500 ng/mL DAPI. Coverslips were mounted onto slides in the dark using Fluoro Gel with DABCO (Electron Microscopy Sciences, Hatfield, PA) and imaged on an EVOS-FL imaging system (ThermoFisher).
Harvested scar tissues were incubated in 0.5M ammonium thiocyanate for 20 minutes, followed by mechanical separation of dermis and epidermis using a dissecting microscope. Isolated dermal tissues were minced with a razor blade, submerged in RIPA buffer, and homogenized in the presence of 2 mm zirconia beads using a MagNA Lyser (Roche, Basel, Switzerland). Alternatively, cell culture samples were detached from the culture surface by trypsinization, collected by centrifugation, and lysed in RIPA buffer. Protein concentrations of cell culture and tissue samples were determined using a DC protein assay (BioRad). Five micrograms of total protein were loaded onto polyacrylamide gels and subjected to SDS-PAGE before transfer to nitrocellulose membranes, blocking with 5% dry milk in TBS-T, and probing with target-specific primary antibodies overnight. Species-specific secondary antibody solutions were added to membranes, and chemiluminescent signal was developed with Amersham ECL Western blotting detection reagent using X-ray film.
Primary antibodies used were rabbit anti-α-SMA (1:1000, 19245S, Cell Signaling Technology), rabbit anti-collagen I (1:1000, ab34710, Abcam), mouse anti-collagen I (1:1000, C2456, Sigma-Aldrich), and mouse anti-GAPDH (1:5000, MA5-15738, Invitrogen). Secondary antibodies utilized were HRP goat anti-rabbit IgG(H+L) and horse anti-mouse IgG(H+L) (Vector Laboratories, Newark, CA), both used at 1:5000.

[2] = tested on: primary human HTS fibroblasts; assay: Collagen I deposition in hypertrophic scar fibroblasts (Western blot, immunofluorescence); details: HTS fibroblasts, ATRA, data not shown
Procedure: (§2) Since overproduction of collagen is characteristic of fibroblasts in tissue fibrosis, including hypertrophic scar and keloid, we wished to determine whether Ch55 also affects deposition of collagen I by these fibroblasts.
as §1, with “Coverslips were mounted onto slides in the dark using Fluoro Gel with DABCO (Electron Microscopy Sciences, Hatfield, PA) and imaged on an EVOS-FL imaging system (ThermoFisher).” left out
(§3) Harvested scar tissues were incubated in 0.5M ammonium thiocyanate for 20 minutes, followed by mechanical separation of dermis and epidermis using a dissecting microscope. […] Protein concentrations of cell culture and tissue samples were determined using a DC protein assay (BioRad). […]

[3] = tested on: primary human keloid fibroblasts; assay: Collagen I deposition in keloid fibroblasts (Western blot, immunofluorescence); details: keloid fibroblasts, ATRA, data not shown
Procedure: as §2
as §1, with “Coverslips were mounted onto slides in the dark using Fluoro Gel with DABCO (Electron Microscopy Sciences, Hatfield, PA) and imaged on an EVOS-FL imaging system (ThermoFisher).” left out
as §3

[4] = tested on: primary human foreskin fibroblasts; assay: In vitro single-concentration screen of predicted compounds (brightfield, qRT-PCR)
Procedure: In order to initially test the identified drugs, we applied each drug or DMSO vehicle control at a single concentration to primary human foreskin fibroblasts in vitro for 24 hours, before harvesting and measuring relative expression of selected myofibroblast marker genes by qRT-PCR. […] None of the drugs tested appeared to affect expression of TGFB1 (the gene encoding transforming growth factor-beta 1) at the examined concentrations.
MATERIALS AND METHODS Materials Emetine dihydrochloride hydrate, homoharringtonine, Ch55 and panobinostat were acquired from Fisher Scientific (Waltham, MA). AZD-7762 was acquired from Selleck Chemicals (Houston, TX). For in vitro work, emetine dihydrochloride hydrate was dissolved in sterile H2O at 50 mM. Homoharringtonine was dissolved in DMSO at 10 mg/mL. Panobinostat was dissolved in DMSO at 425 μM. […] AZD-7762 was dissolved in DMSO at 500 μM. Recombinant human TGF-β1 (Sigma-Aldrich) was dissolved in sterile H2O at 50 µg/mL. All-trans-retinoic acid (Thermo Scientific) was dissolved in DMSO at 10 mM.

[5] = single concentration, 24 hours, vs vehicle

CC1=C(/C=C/C(C)=C/C=C/C(C)=C/C(=O)O)C(C)(C)CCC1 [ATRA, all-trans retinoic acid]
F-actin stress fiber formation [1]: substantially decreased
collagen I protein (Western blot, immunofluorescence) [1]: substantially decreased
α-SMA protein (Western blot, immunofluorescence) [1]: substantially decreased
expression of collagen I [2]: dramatically decreased
expression of collagen I [3]: dramatically decreased

NC(=O)Nc1cc(-c2cccc(F)c2)sc1C(=O)N[C@H]1CCCNC1 [AZD-7762]
downregulation of myofibroblast-associated genes ([4]; single concentration, 24 hours): neither did it appear to downregulate
myofibroblast activation ([4]; single concentration, 24 hours): did not show a similar effect of fibroblast activation

CC[C@H]1CN2CCc3cc(OC)c(OC)cc3[C@@H]2C[C@@H]1C[C@H]1NCCc2cc(OC)c(OC)cc21 [emetine]
detachment of cells from the tissue culture plate ([4]; single concentration, 24 hours): notable detachment of cells
myofibroblast activation ([4]; single concentration, 24 hours): induced myofibroblast activation
CCN2 expression (qRT-PCR) [4, 5]: increased expression
MMP1 expression (qRT-PCR) [4, 5]: decreased expression
SERPINE1 expression (qRT-PCR) [4, 5]: increased expression

COC(=O)C[C@](O)(CCCC(C)(C)O)C(=O)O[C@@H]1C(OC)=C[C@]23CCCN2CCc2cc4c(cc2[C@H]13)OCO4 [homoharringtonine]
detachment of cells from the tissue culture plate [4]: notable detachment of cells
